Data taken from patent US20220347175A1, “PYRIDAZINONE DERIVATIVE” (Sumitomo Dainippon Pharma Co., Ltd., priority 2018, published 2022).

These compounds were tested against T1, human Nav1.1 (Homo sapiens, UniProt P35498) (assay: Amplification of Nav1.1-derived voltage-dependent sodium current (Nav1.1 current), cell line stably expressing human Nav1.1, automated patch clamp). Settings: 10 μmol/L compound (Test Result 5).
T1 construct: host or cells: HEK293
Type: cell-based
Experimental: Test 1: Evaluation of the Amplification of Nav1.1-Derived Voltage-Dependent Sodium Current (Nav1.1 Current) by Using a Cell Line Stably Expressing Human Nav1.1
(1) Preparation of Test Compounds
Test compounds were prepared by dissolving in DMSO at 200 times of the concentration at evaluation, and diluting the obtained solution to twice the concentration of evaluation with an extracellular fluid (135 mmol/L NaCl, 4 mmol/L KCl, 1 mmol/L MgCl2, 5 mmol/L CaCl2, 5 mmol/L Glucose, 10 mmol/L HEPES).
(2) Induction and Measurement of Nav1.1 Current
A HEK293 cell line stably expressing human Nav1.1 (cat #CYL3009, Millipore, USA, Human Embryonic Kidney 293) was purchased, and used in the present test. Nav1.1 current was induced by stimulating Ramp wave voltage. Detection of current which accompanied with the stimulation of voltage was carried out by a patch-clamp voltage-clamp method using HTS automated patch clamp system (SynchroPatch 768PE, Nanion Technologies GmbH, Germany). Only cells with more than 500 pA of voltage-dependent sodium channel current were used for the evaluation of the activity of compounds on Nav1.1 current because there was the possibility that currents derived from endogenous voltage-dependent sodium channels accounted for large proportion in cells with less than 500 pA of voltage-dependent sodium channel current which was induced by stimulating Ramp wave voltage.
(3) Pharmacologic Effect on Nav1.1 Current
The effect of test compounds on the amplification of Nav1.1-derived voltage-dependent sodium current was evaluated by using a cell line stably expressing human Nav1.1 and HTS automated patch clamp system. In other words, test compounds were added in an extracellular fluid containing 1% DMSO, and evaluated as a change of the peak value of Nav1.1 current and the area under the curve (AUC).
(4) Method for Pharmacological Evaluation
The Nav1.1 current amplification rates of test compounds were calculated by the following formula:
Nav1.1 current amplification rate (%)=100×[the peak value of Nav1.1 current or the area under the curve after the addition of test compounds]/[the peak value of Nav1.1 current or the area under the curve before the addition of test compounds]−100

Structure (SMILES)	Nav1.1 current amplification rate (%)
CC1CC(C)CN(c2ccc(=O)n(CC(=O)Nc3ccc(C#N)cc3)n2)C1 (centres unmarked) [Example 15]	10%
Cc1ccc(-c2ccc(=O)n(CC(=O)Nc3cncnc3)n2)cc1 [Example 141]	46%
CC1CCC(c2ccc(=O)n(CC(=O)Nc3ccc(C#N)cc3)n2)CC1 (centres unmarked) [Example 44]	59%
N#Cc1ccc(NC(=O)Cn2nc(C3CCCCC3)ccc2=O)cc1 [Example 40]	20%
CCC1(C)CCN(c2ccc(=O)n(CC(=O)Nc3ccc(C#N)cc3)n2)CC1 [Example 28]	158%
CC1(C)CCCN(c2ccc(=O)n(CC(=O)Nc3ccc(C#N)cc3)n2)C1 [Example 22]	110%
CC1(C)CC=C(c2ccc(=O)n(CC(=O)Nc3ccc(C#N)cc3)n2)CC1 [Example 42]	216%
CC1CCN(c2nn(CC(=O)Nc3ccc(C#N)cc3)c(=O)c3c2CCCC3)CC1 [Example 36]	312%
N#Cc1ccc(NC(=O)Cn2nc(N3CCC4(CCCCC4)C3)ccc2=O)cc1 [Example 31]	220%
CC1CC=C(c2ccc(=O)n(CC(=O)N3CCC(c4cccnc4)CC3)n2)CC1 (racemic) [Example 262]	124%
CC1CC=C(c2ccc(=O)n(CC(=O)NC3CCN(c4ccccc4)CC3)n2)CC1 (racemic) [Example 368]	18%
N#Cc1ccc(NC(=O)Cn2nc(N3CCC4(CC3)COC4)ccc2=O)cc1 [Example 27]	5%
CC1CC=C(c2ccc(=O)n(CC(=O)Nc3ccc(C4=CCN(C)C4)nc3)n2)CC1 (racemic) [Example 374]	18%
N#Cc1ccc(NC(=O)Cn2nc(N3CC4CC4C3)ccc2=O)cc1 (centres unmarked) [Example 18]	11%
N#Cc1ccc(NC(=O)Cn2nc(N3CCC4(CCC4)C3)ccc2=O)cc1 [Example 34]	311%
CCCCN(C)c1ccc(=O)n(CC(=O)Nc2ccc(C#N)cc2)n1 [Example 30]	77%
CC1CC=C(c2ccc(=O)n(CC(=O)Nc3ccc(C#N)cc3)n2)CC1 (centres unmarked) [Example 41]	324%
CC1CC=C(c2ccc(=O)n(CC(=O)Nc3ccnc(CN4CCOCC4)c3)n2)CC1 (racemic) [Example 373]	35%
N#Cc1ccc(NC(=O)Cn2nc(N3CCCC3)ccc2=O)cc1 [Example 4]	3%
Cc1ccc(-c2ccc(=O)n(CC(=O)Nc3ccnnc3)n2)cc1 [Example 142]	34%

Same assay, conditions: 10 μmol/L compound (Test Result 5); read-out: Nav1.1 current amplification rate (%)

Structure (SMILES)	activation at 10 µM
CC1CCN(c2ccc(=O)n(CC(=O)N3CCN(c4ccccn4)CC3)n2)CC1 [Example 180]	22%
CC1CC=C(c2ccc(=O)n(CC(=O)NC3CCn4ccnc4C3)n2)CC1 (centres unmarked) [Example 533]	22%
O=C(Cn1nc(C2=CCCCO2)ccc1=O)N1CCc2c(-c3ccnnc3)cccc21 [Example 525]	18%
CC1(C)CC=C(c2ccc(=O)n(CC(=O)NC3CCn4ccnc4C3)n2)CC1 (centres unmarked) [Example 534]	7%

Same assay, conditions: Concentration 1 μM (Test Result 7); read-out: Nav1.1 current amplification rate (%)

Structure (SMILES)	activation at 1 µM
CN(c1ccc(=O)n(CC(=O)Nc2ccc(C#N)nc2)n1)C1CCCC1 [Example 561]	17%
Cc1ccc(-c2ccc(=O)n(CC(=O)Nc3ccn4ncnc4c3)n2)c(F)c1 [Example 566]	98%
CC1CC=C(c2ccc(=O)n(CC(=O)Nc3ccc4ncccc4c3)n2)CC1 (centres unmarked) [Example 546]	59%
CCC1CC=C(c2ccc(=O)n(CC(=O)Nc3ccn4ncnc4c3)n2)CC1 (centres unmarked) [Example 554]	115%
O=C(Cn1nc(N2CCC3(CCC3)CC2)ccc1=O)Nc1ccc2cncnc2c1 [Example 553]	155%
CC1CC=C(c2ccc(=O)n(CC(=O)Nc3ccc4cccnc4c3)n2)CC1 (centres unmarked) [Example 543]	154%
CN(c1ccc(=O)n(CC(=O)N2CCc3c(N4CCOCC4)cccc32)n1)C1CC2(CC2)C1 [Example 570]	99%
CC1CC=C(c2ccc(=O)n(CC(=O)Nc3cnc4ccccc4n3)n2)CC1 (centres unmarked) [Example 548]	41%
CC1CC=C(c2ccc(=O)n(CC(=O)Nc3ccc(C#N)cc3F)n2)CC1 (centres unmarked) [Example 547]	70%
CN(c1ccc(=O)n(CC(=O)Nc2ccc3cnccc3c2)n1)C1CCCC1 [Example 563]	50%
CC1CC=C(c2ccc(=O)n(CC(=O)Nc3ccc4ccncc4c3)n2)CC1 (centres unmarked) [Example 544]	208%
CC1CC=C(c2ccc(=O)n(CC(=O)Nc3ccc4c(O)ncnc4c3)n2)CC1 (centres unmarked) [Example 550]	31%
CCC1CC=C(c2ccc(=O)n(CC(=O)Nc3ccc4ncnn4c3)n2)CC1 (centres unmarked) [Example 555]	80%
CN(c1ccc(=O)n(CC(=O)N2CCc3c(N4CCOCC4)cccc32)n1)C1CCCC1 [Example 565]	62%

Same assay, conditions: Concentration 10 μM (Test Result 7); read-out: Nav1.1 current amplification rate (%)

Structure (SMILES)	activation at 10 µM
COc1cc(C)cc(F)c1-c1ccc(=O)n(CC(=O)Nc2ccn3ncnc3c2)n1 [Example 571]	24%
CC1CC=C(c2ccc(=O)n(CC(=O)Nc3ncc4ccccc4n3)n2)CC1 (centres unmarked) [Example 551]	16%

Same assay, conditions: compound 50 μmol/L; HEK293 stably expressing human Nav1.1

Structure (SMILES)	Nav1.1 current amplification rate (%)
COCCCN1CC2(CCN(C(=O)Cn3nc(C4=CCC(C)CC4)ccc3=O)C2)C1 (racemic) [Example 308]	9%
O=C(Cn1nc(C2=CCCC2)ccc1=O)Nc1ccn2ccnc2c1 [Example 457]	29%
CC1CC=C(c2ccc(=O)n(CC(=O)NC3CCN(c4ccccc4)C3)n2)CC1 (mixture of isomers) [Example 369]	10%
CC1CC=C(c2ccc(=O)n(CC(=O)Nc3ccc4nncn4c3)n2)CC1 (racemic) [Example 341]	202%
CC1CC=C(c2ccc(=O)n(CC(=O)N3CCc4nc(-c5cn[nH]c5)ccc43)n2)CC1 (racemic) [Example 289]	51%
CC1CC=C(c2ccc(=O)n(CC(=O)Nc3ccnc(C4=CCN(C)C4)c3)n2)CC1 (racemic) [Example 371]	64%

Same assay, conditions: concentration of each compound 1 μmol/L (Test Result 6)

Structure (SMILES)	Nav1.1 current amplification rate (%)
CC1CC=C(c2ccc(=O)n(CC(=O)N3CCc4c(CN5CCCCC5)cccc43)n2)CC1 (racemic) [Example 282]	26%
CC1CC=C(c2ccc(=O)n(CC(=O)Nc3ccn4cnnc4c3)n2)CC1 (racemic) [Example 358]	71%
Cc1cn(Cc2cccc3c2CCN3C(=O)Cn2nc(C3=CCC(C)CC3)ccc2=O)cn1 (racemic) [Example 288]	115%
CC1CC=C(c2ccc(=O)n(CC(=O)N3CC=C(c4ccncc4)CC3)n2)CC1 (centres unmarked) [Example 419]	66%
COCCN(C)Cc1cccc2c1CCN2C(=O)Cn1nc(C2=CCC(C)CC2)ccc1=O (racemic) [Example 275]	46%
CC1CC=C(c2ccc(=O)n(CC(=O)Nc3cnc4c(cnn4C)c3)n2)CC1 (racemic) [Example 348]	57%
CC1CC=C(c2ccc(=O)n(CC(=O)Nc3cccc(-n4ccnc4)c3)n2)CC1 (racemic) [Example 363]	174%
CC1CC=C(c2ccc(=O)n(CC(=O)Nc3ccc(-n4ccnc4)nc3)n2)CC1 (racemic) [Example 377]	134%
CC1CC=C(c2ccc(=O)n(CC(=O)N3CCc4c(CNCC(F)F)cccc43)n2)CC1 (racemic) [Example 312]	80%
COC1CCN(Cc2cccc3c2CCN3C(=O)Cn2nc(C3=CCC(C)CC3)ccc2=O)C1 (mixture of isomers) [Example 272]	127%
CC1CC=C(c2ccc(=O)n(CC(=O)N3CCc4c3ccnc4-c3cccnc3)n2)CC1 (racemic) [Example 297]	151%
CC1CC=C(c2ccc(=O)n(CC(=O)Nc3cncc(-c4cnn(C)c4)c3)n2)CC1 (racemic) [Example 378]	37%

Same assay, conditions: concentration of each compound 1 μmol/L (Test Result 6); read-out: Nav1.1 current amplification rate (%)

Structure (SMILES)	activation at 1 µM
O=C(Cn1nc(C2=CCCCC2)ccc1=O)Nc1ccn2ncnc2c1 [Example 495]	28%
O=C(Cn1nc(-c2cc(Cl)cs2)ccc1=O)Nc1ccn2ncnc2c1 [Example 497]	43%
Cc1cc(=O)n(CC(=O)Nc2ccc3ncnn3c2)nc1C1=CCC(C)CC1 (centres unmarked) [Example 501]	33%
O=C(Cn1nc(N2CCC3(CCC3)CC2)ccc1=O)Nc1ccn2ncnc2c1 [Example 231]	50%
